Like-named read-outs stand apart in the source and are kept apart here.
Columns and labels:
HCT-116 = test: Inhibition of tumor cell proliferation, HCT-116; type: cell-based, human; conditions: read-out: Cancer Cell Line (IC50, nM) HCT-116
Experimental: (§1) The biological activity of compounds of this invention was evaluated by measuring their inhibitory effect on the proliferation of various tumor cell lines. HCT-116 is a human colon cancer cell line. LNCap is a human prostate cancer cell line. SiHa is an HPV-16 positive human cervical cancer line.

SiHa = test: Inhibition of tumor cell proliferation, SiHa; type: cell-based, human; conditions: read-out: Cancer Cell Line (IC50, nM) SiHa
Experimental: as §1

LNCap = test: Inhibition of tumor cell proliferation, LNCap; type: cell-based, human; conditions: read-out: Cancer Cell Line (IC50, nM) LNCap
Experimental: as §1

CRM1 substrate RanBP1 = test: Nuclear export block (RanBP1 localization, recovery after compound removal); type: cell-based; conditions: recovery of cytoplasmic RanBP1 localization after compound washout (typically 1 h exposure; 8, 24 or 48 h recovery)
Experimental: The nuclear export blocking capability of compounds of this invention was evaluated as follows:
1-5×10^4 cells were seeded onto 12 mm glass coverslips or wells of a chamber slide (for example, Lab-Tek #177445). Cells were grown overnight at 37° C. to allow cells to attach to the surface. Media was removed and replaced with media containing the desired test compound and incubated the required time period (typically 1 h). For recovery experiments, cells were washed with PBS or media and incubated in media without test compound for the desired recovery periods (typically 8, 24, or 48 h). The media was removed and coverslips/wells were washed with PBS pH 7.4 for 1 minute. Coverslips or slides were fixed with 3.7% formaldehyde in PBS for 20 minutes at room temperature, washed three times in PBS, and stained for the CRM1 substrate RanBP1.
Coverslips or chamber slides were permeabilized and blocked in 10% donkey serum, 0.1% Triton X-100 in PBS for 30 minutes at room temperature. Primary antibodies were diluted in PBS and incubated for 1 hour at room temperature: goat-anti-RanBP1 (Santa Cruz Biotechnology, sc-1160; 1:50 dilution) and mouse-anti-tubulin (Sigma, T9026; 1:400). Cells were washed 3×5 minutes in PBS. Secondary antibodies donkey-anti-goat Cy3 (705-165-147, Jackson Immunoresearch) and donkey anti-mouse FITC (715-095-150, Jackson Immunoresearch) were diluted 1:200 in PBS and incubated for 1 hour at room temperature. Secondary antibody was removed and cells were stained with a nuclear dye such as DAPI (Sigma, D8417; 2.5 ug/mL in PBS) or Hoechst 33342 (Molecular Probes, H3570; 100 ng/mL in PBS) for 5 minutes at room temperature. Cells were washed 3×5 minutes in PBS and coverslips were mounted with FluorSave (EMD Biosciences, 80058-108). Nuclear (N) or cytoplasmic (C) localization of RanBP1 was examined using a 40× objective on a Zeiss Axiovert 200 inverted epiflourescence microscope. Nuclear localization (N>C) was confirmed after the initial drugging period.

Row | Molecule | IC50 (HCT-116; exposure time to compound 1 h) | IC50 (SiHa; exposure time to compound 1 h) | IC50 (HCT-116; exposure time to compound 72 h) | IC50 (HCT-116; Homo sapiens, HCT-116, 1 h) | IC50 (SiHa; Homo sapiens, SiHa, 1 h) | other results
1 | CC(C=CC1CC=CC(=O)O1)=CC(C)CC=CC(C)=CC(C)C(=O)C(C)C(O)C(C)CC(C)=CCOC(=O)NCCn1ccnc1 (stereo not drawn) [Compound A-14] | 2.9 nM | 3.8 nM |  |  |  | 
2 | CCN(CC)CCNC(=O)OCC=C(C)CC(C)C(O)C(C)C(=O)C(C)C=C(C)C=CCC(C)C=C(C)C=CC1CC=CC(=O)O1 (stereo not drawn) [Compound A-8] | 2.6 nM | 0.5 nM | 0.8 nM |  |  | IC50 (LNCap; exposure time to compound 1 h): 1.3 nM; IC50 (LNCap; exposure time to compound 72 h): 0.4 nM
3 | CC(=C/[C@H](C)C/C=C/C(C)=C/[C@@H](C)C(=O)[C@@H](C)[C@H](O)[C@@H](C)C/C(C)=C/COC(=O)NCc1ccc(C(F)(F)F)cn1)/C=C/[C@H]1CC=CC(=O)O1 [Compound A-21] |  |  |  | 20 nM | 11.5 nM | IC50 (HCT-116; Homo sapiens, HCT-116, 72 h): 3.1 nM
4 | CNC(=O)OC/C=C(\C)C[C@H](C)[C@@H](O)[C@H](C)C(=O)[C@H](C)/C=C(C)/C=C/C[C@@H](C)/C=C(C)\C=C\[C@H]1CC=CC(=O)O1 [Compound A-2] |  |  |  | 3.7 nM | 1.2 nM | Nuclear Export Block (CRM1 substrate RanBP1): Slow recovery; IC50 (LNCap; Homo sapiens, LNCaP, 1 h): 2.7 nM; IC50 (LNCap; Homo sapiens, LNCaP, 72 h): 0.4 nM; IC50 (HCT-116; Homo sapiens, HCT-116, 72 h): 0.7 nM; IC50 (SiHa; Homo sapiens, SiHa, 72 h): 0.4 nM
5 | CC(/C=C/C[C@@H](C)/C=C(C)/C=C/[C@@H]1OC(=O)C=C[C@@H]1C)=C\[C@@H](C)C(=O)[C@@H](C)[C@H](O)[C@@H](C)C/C(C)=C/C(=O)O [Leptomycin A, leptomycin A, reference compound] | 19 nM |  | 1.4 nM |  |  | Nuclear Export Block (CRM1 substrate RanBP1): Fast recovery; IC50 (SiHa; exposure time to compound 72 h): 0.5 nM
6 | CC(C=CC1CC=CC(=O)O1)=CC(C)CC=CC(C)=CC(C)C(=O)C(C)C(OC(N)=O)C(C)CC(C)=CCOC(=O)NCc1nccs1 (stereo not drawn) [Compound A-20] | 9.4 nM | 4.6 nM | 2.6 nM |  |  | 
7 | CC(=C/[C@H](C)C/C=C/C(C)=C/[C@@H](C)C(=O)[C@@H](C)[C@H](OC(N)=O)[C@@H](C)C/C(C)=C/CO)/C=C/[C@H]1CC=CC(=O)O1 [IV] |  |  |  | 8.1 nM | 3.3 nM | 
8 | CC(C=CC1CC=CC(=O)O1)=CC(C)CC=CC(C)=CC(C)C(=O)C(C)C(O)C(C)CC(C)=CCOC(=O)NCCc1cccnc1 (stereo not drawn) [Compound A-6] | 2.6 nM | 2.1 nM | 0.8 nM |  |  | Nuclear Export Block (CRM1 substrate RanBP1): Slow recovery; IC50 (LNCap; exposure time to compound 1 h): 2.8 nM; IC50 (LNCap; exposure time to compound 72 h): 0.4 nM
9 | COCCNC(=O)OCC=C(C)CC(C)C(O)C(C)C(=O)C(C)C=C(C)C=CCC(C)C=C(C)C=CC1CC=CC(=O)O1 (stereo not drawn) [Compound A-10] | 3.2 nM | 2.5 nM |  |  |  | 
10 | CC(=C/[C@H](C)C/C=C/C(C)=C/[C@@H](C)C(=O)[C@@H](C)[C@H](O)[C@@H](C)C/C(C)=C/COC(=O)NCc1cc(C)on1)/C=C/[C@H]1CC=CC(=O)O1 [Compound A-15] |  |  |  | 2.8 nM | 3.6 nM | 
11 | leptolstatin [reference compound] | 5.5 nM | 1.6 nM | 0.49 nM |  |  | Nuclear Export Block (CRM1 substrate RanBP1): Slow recovery; IC50 (SiHa; exposure time to compound 72 h): 0.45 nM
12 | CC(=C/[C@H](C)C/C=C/C(C)=C/[C@@H](C)C(=O)[C@@H](C)[C@H](O)[C@@H](C)C/C(C)=C/COC(=O)NC[C@@H](O)CO)/C=C/[C@H]1CC=CC(=O)O1 [Compound A-17] |  |  |  | 3.6 nM | 3.2 nM | 
13 | CC(C=CC1CC=CC(=O)O1)=CC(C)CC=CC(C)=CC(C)C(=O)C(C)C(OC(N)=O)C(C)CC(C)=CCOC(=O)N(Cc1ccccc1)C(N)=O (stereo not drawn) [Compound A-18] | 20.3 nM | 22.5 nM |  |  |  | 
14 | CC(=C/[C@H](C)C/C=C/C(C)=C/[C@@H](C)C(=O)[C@@H](C)[C@H](O)[C@@H](C)C/C(C)=C/COC(=O)NCc1ccc(C(F)(F)F)nc1)/C=C/[C@H]1CC=CC(=O)O1 [Compound A-22] |  |  |  | 18.1 nM |  | 
15 | CC(=C/[C@H](C)C/C=C/C(C)=C/[C@@H](C)C(=O)[C@@H](C)[C@H](O)[C@@H](C)C/C(C)=C/COC(=O)NCc1nccs1)/C=C/[C@H]1CC=CC(=O)O1 [Compound A-19] |  |  |  | 4.4 nM | 4.5 nM | 
16 | CC(C=CC1CC=CC(=O)O1)=CC(C)CC=CC(C)=CC(C)C(=O)C(C)C(O)C(C)CC(C)=CCOC(=O)NCCc1ccc(F)cc1 (stereo not drawn) [Compound A-9] | 13.8 nM | 8.2 nM |  |  |  | 
17 | CC(C=CC1CC=CC(=O)O1)=CC(C)CC=CC(C)=CC(C)C(=O)C(C)C(O)C(C)CC(C)=CCOC(=O)NCCN1CCOCC1 (stereo not drawn) [Compound A-7] | 1.8 nM | 0.5 nM | 0.4 nM |  |  | IC50 (LNCap; exposure time to compound 1 h): 1.7 nM; IC50 (LNCap; exposure time to compound 72 h): 0.4 nM
18 | CC(C=CC1CC=CC(=O)O1)=CC(C)CC=CC(C)=CC(C)C(=O)C(C)C(O)C(C)CC(C)=CCOC(=O)NCCN1CCCC1 (stereo not drawn) [Compound A-5] | 2.2 nM | 2.1 nM | 1.6 nM |  |  | IC50 (LNCap; exposure time to compound 1 h): 1.7 nM; IC50 (LNCap; exposure time to compound 72 h): 0.5 nM
19 | CC(=C/[C@H](C)C/C=C/C(C)=C/[C@@H](C)C(=O)[C@@H](C)[C@H](O)[C@@H](C)C/C(C)=C/COC(=O)NCc1ccccn1)/C=C/[C@H]1CC=CC(=O)O1 [Compound A-16] |  |  |  | 2.9 nM | 3.8 nM | 
20 | CC(C=CC1CC=CC(=O)O1)=CC(C)CC=CC(C)=CC(C)C(=O)C(C)C(O)C(C)CC(C)=CCOC(=O)NCc1ccc(F)cc1 (stereo not drawn) [Compound A-12] | 13.9 nM | 5.8 nM |  |  |  | 
21 | CC(C=CC1CC=CC(=O)O1)=CC(C)CC=CC(C)=CC(C)C(=O)C(C)C(O)C(C)CC(C)=CCOC(=O)NCCN1CCCC1=O (stereo not drawn) [Compound A-13] | 2.9 nM | 3.4 nM |  |  |  | 
22 | CC(C=CC1CC=CC(=O)O1)=CC(C)CC=CC(C)=CC(C)C(=O)C(C)C(O)C(C)CC(C)=CCOC(=O)NCCc1c(C)noc1C (stereo not drawn) [Compound A-11] | 4.2 nM | 3.1 nM |  |  |  | 
23 | CC(=C/[C@H](C)C/C=C/C(C)=C/[C@@H](C)C(=O)[C@@H](C)[C@H](O)[C@@H](C)C/C(C)=C/COC(=O)NCc1cccc(C(F)(F)F)n1)/C=C/[C@H]1CC=CC(=O)O1 [Compound A-23] |  |  |  | 21.5 nM |  | 
